Converted amounts (≈) assume the structure as drawn.

The subject of the experiment is Saur 9213. As to the kind of experiment: MIC test, standard agar dilution method. In kind it is cell-based. To be noted: Mueller Hinton agar, incubated overnight at 35° C., lowest concentration that inhibits visible growth. The source says: The oxazolidinone antibacterial agents of this invention have useful activity against a variety of organisms. The in vitro activity of compounds of this invention can be assessed by standard testing procedures such as the determination of minimum inhibitory concentration (MIC) by agar dilution as described in “Approved Standard. Methods for Dilution Antimicrobial Susceptibility Tests for Bacteria That Grow Aerobically”, 3rd. ed., published 1993 by the National Committee for Clinical Laboratory Standards, Villanova, Pa., USA. MIC Test Method The in vitro MICs of test compounds were determined by a standard agar dilution method. A stock drug solution of each analog was prepared in the preferred solvent, usually DMSO:H2O (1:3). Serial 2-fold dilutions of each sample are made using 1.0 ml aliquots of sterile distilled water. To each 1.0 ml aliquot of drug was added 9 ml of molten Mueller Hinton gar medium. The drug-supplemented agar was mixed, poured into 15×100 mm petri dishes, and allowed to solidify and dry prior to inoculation. Vial of each of the test organisms are maintained frozen in the vapor phase of a liquid nitrogen freezer. Test cultures are grown overnight at 35° C. on the medium appropriate for the organism. Colonies are harvested with a sterile swab, and cell suspensions are prepared in Trypticase Soy broth (TSB) to equal the turbidity of a 0.5 McFarland standard. A 1:20 dilution of each suspension was made in TSB. The plates containing the drug supplemented agar are inoculated with a 0.001 ml drop of the cell suspension using a Steers replicator, yielding approximately 10^4 to 10^5 cells per spot. The plates are incubated overnight at 35° C. Following incubation the Minimum Inhibitory Concentration (MIC μg/ml), the lowest concentration of the drug that inhibits visible growth of the organism, was read and recorded.
Background: Agar dilution tests growth on a series of plates holding different concentrations.
`CCC(=O)NC[C@H]1CN(c2ccc(C3CCNC(=O)C3)cc2)C(=O)O1` (stereo partly drawn) [Example 24, N-({(5S)-2-oxo-3-[4-(2-oxopiperidin-4-yl)phenyl]-1,3-oxazolidin-5-yl}methyl)propanamide]: the MIC is 8 µg/mL (≈ 23.2 µM).

`CCC(=O)NC[C@H]1CN(c2ccc(C3CCC(=O)NC3)cc2)C(=O)O1` (stereo partly drawn) [Example 11, N-({(5S)-2-oxo-3-[4-(6-oxopiperidin-3-yl)phenyl]-1,3-oxazolidin-5-yl}methyl)propanamide] came in with an MIC of 8 µg/mL (≈ 23.2 µM).

Regarding `O=C1CCC(c2ccc(N3C[C@H](CNC(=O)C(Cl)Cl)OC3=O)cc2F)CN1` (stereo partly drawn) [Example 3, 2,2-dichloro-N-({(5S)-3-[3-fluoro-4-(6-oxopiperidin-3-yl)phenyl]-2-oxo-1,3-oxazolidin-5-yl}methyl)acetamide], it took 4 µg/mL (≈ 9.56 µM) to inhibit growth (MIC).

As to `O=C1CCC(c2c(F)cc(N3C[C@H](CNC(=O)C(Cl)Cl)OC3=O)cc2F)CN1` (stereo partly drawn) [Example 7, 2,2-dichloro-N-({(5S)-3-[3,5-difluoro-4-(6-oxopiperidin-3-yl)phenyl]-2-oxo-1,3-oxazolidin-5-yl}methyl)acetamide], the MIC was 2 µg/mL (≈ 4.58 µM).

`CC(=O)NC[C@H]1CN(c2ccc(C3CCNC(=O)C3)c(F)c2)C(=O)O1` (stereo partly drawn) [Example 16, N-({(5S)-3-[3-fluoro-4-(2-oxopiperidin-4-yl)phenyl]-2-oxo-1,3-oxazolidin-5-yl}methyl)acetamide] returned a minimal inhibitory concentration (MIC) of 2 µg/mL (≈ 5.72 µM).

On to `O=C1CC(c2c(F)cc(N3C[C@H](CNC(=S)C(F)F)OC3=O)cc2F)CCN1` (stereo partly drawn) [Example 21, N-({(5S)-3-[3,5-difluoro-4-(2-oxopiperidin-4-yl)phenyl]-2-oxo-1,3-oxazolidin-5-yl}methyl)-2,2-difluoroethanethioamide], for which 2 µg/mL (≈ 4.77 µM) was the least that counted as inhibitory (MIC).

In turn, `O=C1CCC(c2c(F)cc(N3C[C@H](CNC(=O)C(F)F)OC3=O)cc2F)CN1` (stereo partly drawn) [Example 9, N-({(5S)-3-[3,5-difluoro-4-(6-oxopiperidin-3-yl)phenyl]-2-oxo-1,3-oxazolidin-5-yl}methyl)-2,2-difluoroacetamide] showed an MIC of 4 µg/mL (≈ 9.92 µM).

In turn, `O=C1CCC(c2ccc(N3C[C@H](CNC(=O)C(Cl)Cl)OC3=O)cc2)CN1` (stereo partly drawn) [Example 12, 2,2-dichloro-N-({(5S)-2-oxo-3-[4-(6-oxopiperidin-3-yl)phenyl]-1,3-oxazolidin-5-yl}methyl)acetamide] registered an MIC of 4 µg/mL (≈ 9.99 µM).

For the compound `O=C1CCC(c2c(F)cc(N3C[C@H](Cn4ccnn4)OC3=O)cc2F)CN1` (stereo partly drawn) [Example 26, 5-{2,6-difluoro-4-[(5R)-2-oxo-5-(1H-1,2,3-triazol-1-ylmethyl)-1,3-oxazolidin-3-yl]phenyl}piperidin-2-one], inhibition of growth (MIC) required 2 µg/mL (≈ 5.3 µM).

In turn, `CC(=O)NC[C@H]1CN(c2cc(F)c(C3CCNC(=O)C3)c(F)c2)C(=O)O1` (stereo partly drawn) [Example 19, N-({(5S)-3-[3,5-difluoro-4-(2-oxopiperidin-4-yl)phenyl]-2-oxo-1,3-oxazolidin-5-yl}methyl)acetamide] yielded a minimal inhibitory concentration (MIC) of 4 µg/mL (≈ 10.9 µM).

Compound `CC(=O)NC[C@H]1CN(c2ccc(C3CCC(=O)N(C)C3)cc2)C(=O)O1` (stereo partly drawn) [Example 15, ({(5S)-3-[4-(1-methyl-6-oxopiperidin-3-yl)phenyl]-2-oxo-1,3-oxazolidin-5-yl}methyl)acetamide] came in with an MIC of 8 µg/mL (≈ 23.2 µM).

Take `CC(=O)NC[C@H]1CN(c2cc(F)c(C3CCC(=O)NC3)c(F)c2)C(=O)O1` (stereo partly drawn) [Example 6, N-({(5S)-3-[3,5-difluoro-4-(6-oxopiperidin-3-yl)phenyl]-2-oxo-1,3-oxazolidin-5-yl}methyl)acetamide]: 4 µg/mL (≈ 10.9 µM) was the least that counted as inhibitory (MIC).

Regarding `CC(=O)NC[C@H]1CN(c2ccc(C3CCC(=O)NC3)c(F)c2)C(=O)O1` (stereo partly drawn) [Example 1, N-({(5S)-3-[3-fluoro-4-(6-oxopiperidin-3-yl)phenyl]-2-oxo-1,3-oxazolidin-5-yl}methyl)acetamide], the MIC is 4 µg/mL (≈ 11.4 µM).

In turn, `CCC(=O)NC[C@H]1CN(c2ccc(C3CCC(=O)NC3)c(F)c2)C(=O)O1` (stereo partly drawn) [Example 2, N-({(5S)-3-[3-fluoro-4-(6-oxopiperidin-3-yl)phenyl]-2-oxo-1,3-oxazolidin-5-yl}methyl)propanamide] registered an MIC of 4 µg/mL (≈ 11 µM).

Turning to `O=C1CCC(c2c(F)cc(N3C[C@H](CNC(=S)C(F)F)OC3=O)cc2F)CN1` (stereo partly drawn) [Example 8, N-({(5S)-3-[3,5-difluoro-4-(6-oxopiperidin-3-yl)phenyl]-2-oxo-1,3-oxazolidin-5-yl}methyl)-2,2-difluoroethanethioamide], inhibition of growth (MIC) required 1 µg/mL (≈ 2.38 µM).

`O=C1CCC(c2ccc(N3C[C@H](CNC(=O)C(F)F)OC3=O)cc2F)CN1` (stereo partly drawn) [Example 5, 2,2-difluoro-N-({(5S)-3-[3-fluoro-4-(6-oxopiperidin-3-yl)phenyl]-2-oxo-1,3-oxazolidin-5-yl}methyl)acetamide] returned a minimum inhibitory concentration (MIC) of 4 µg/mL (≈ 10.4 µM).

On to `O=C1CCC(c2ccc(N3C[C@H](CNC(=S)C(F)F)OC3=O)cc2F)CN1` (stereo partly drawn) [Example 4, 2,2-difluoro-N-({(5S)-3-[3-fluoro-4-(6-oxopiperidin-3-yl)phenyl]-2-oxo-1,3-oxazolidin-5-yl}methyl)ethanethioamide], for which 1 µg/mL (≈ 2.49 µM) was the least that counted as inhibitory (MIC).

As for `O=C1CC(c2ccc(N3C[C@H](CNC(=S)C(F)F)OC3=O)cc2)CCN1` (stereo partly drawn) [Example 23, 2,2-difluoro-N-({(5S)-2-oxo-3-[4-(2-oxopiperidin-4-yl)phenyl]-1,3-oxazolidin-5-yl}methyl)ethanethioamide], the minimal inhibitory concentration (MIC) amounted to 1 µg/mL (≈ 2.61 µM).

The compound `CCC(=O)NC[C@H]1CN(c2ccc(C3CCNC(=O)C3)c(F)c2)C(=O)O1` (stereo partly drawn) [Example 17, N-({(5S)-3-[3-fluoro-4-(2-oxopiperidin-4-yl)phenyl]-2-oxo-1,3-oxazolidin-5-yl}methyl)propanamide] showed an MIC of 4 µg/mL (≈ 11 µM).

`CCC(=O)NC[C@H]1CN(c2cc(F)c(C3CCNC(=O)C3)c(F)c2)C(=O)O1` (stereo partly drawn) [Example 20, N-({(5S)-3-[3,5-difluoro-4-(2-oxopiperidin-4-yl)phenyl]-2-oxo-1,3-oxazolidin-5-yl}methyl)propanamide] registered an MIC of 8 µg/mL (≈ 21 µM).

In the case of `O=C1CCC(c2ccc(N3C[C@H](CNC(=S)C(F)F)OC3=O)cc2)CN1` (stereo partly drawn) [Example 13, 2,2-difluoro-N-({(5S)-2-oxo-3-[4-(6-oxopiperidin-3-yl)phenyl]-1,3-oxazolidin-5-yl}methyl)ethanethioamide], the lowest concentration to inhibit growth (MIC) was 2 µg/mL (≈ 5.22 µM).

`CC(=O)NC[C@H]1CN(c2ccc(C3CCNC(=O)C3)cc2)C(=O)O1` (stereo partly drawn) [Example 22, N-({(5S)-2-oxo-3-[4-(2-oxopiperidin-4-yl)phenyl]-1,3-oxazolidin-5-yl}methyl)acetamide] yielded an MIC of 4 µg/mL (≈ 12.1 µM).

In turn, `CC(=O)NC[C@H]1CN(c2ccc(C3CCC(=O)NC3)cc2)C(=O)O1` (stereo partly drawn) [Example 10, N-({(5S)-2-oxo-3-[4-(6-oxopiperidin-3-yl)phenyl]-1,3-oxazolidin-5-yl}methyl)acetamide] came in with an MIC of 8 µg/mL (≈ 24.1 µM).

For the compound `O=C1CC(c2ccc(N3C[C@H](CNC(=S)C(F)F)OC3=O)cc2F)CCN1` (stereo partly drawn) [Example 18, 2,2-difluoro-N-({(5S)-3-[3-fluoro-4-(2-oxopiperidin-4-yl)phenyl]-2-oxo-1,3-oxazolidin-5-yl}methyl)ethanethioamide], the minimal inhibitory concentration (MIC) was determined as 1 µg/mL (≈ 2.49 µM).

`CC(=O)NC[C@H]1CN(c2ccc(C3CCN(C)C(=O)C3)cc2)C(=O)O1` (stereo partly drawn) [Example 25, N-({(5S)-3-[4-(1-methyl-2-oxopiperidin-4-yl)phenyl]-2-oxo-1,3-oxazolidin-5-yl}methyl)acetamide] displayed a minimum inhibitory concentration (MIC) of 4 µg/mL (≈ 11.6 µM).

The term MIC denotes the lowest concentration found to suppress growth. High values mean a less susceptible organism, low ones a more susceptible organism.

(Values after US7094900B2, “N-Aryl-2-oxazolidinones and their derivatives” (Pharmacia & Upjohn Company LLC, priority 2002, dated 2006).)
